Results: patent publication US20230172914A1, “BIOMARKER-BASED THERAPEUTIC COMPOSITION” (WELLMARKER BIO CO., LTD., priority 2019, published 2023)

Experiments:
[1] = tested on: RON mutant (Δ155); experiment: Kinase assay for RON mutant Δ155 in transfected Colo320HSR (immunoprecipitation, Western blotting); assay type: cell-based; settings: Colo320HSR transfected with RONΔ155, 2 hours of drug treatment
Description: As a way capable of replacing RON mutant, each of the mutants (Δ160, Δ155) was transfected into Colo320HSR, a RON-negative cell line, and the cell line was subjected to treatment with Example 18 or Comparative Example 1 at respective concentrations. Then, it was checked, through immunoprecipitation and Western blotting, whether expression of active RON decreases. The detailed method is as follows. The RON-negative Colo320SHR colon cancer cell line was transfected with 12 ug of each of RONΔ160 and RON Δ155 using lipofectamine 2000 (Invitrogen, cat #11668-019). For the same transfection efficiency, after 24 hours, the transformed strains were dispensed into a 60-mm dish. 48 hours after transfection, treatment with drugs of Comparative Example 1 and Example 18 was performed, respectively, in a dose-dependent manner. After 2 hours of drug treatment, the cells were collected and washed with PBS. Then, the washed cells were lysed with RIPA Lysis Buffer (T&I, cat #BRI-9001).
Protein concentrations were quantified using the Bradford (BioRad, cat #5000205) method. […]
Electrophoresis was performed using SDS-PAGE, and then proteins were transferred to PVDF membrane. […] The developed film was analyzed with densitometry using Image-J, and then IC50 was calculated using Graphpad Prism (GraphPad Software, Inc.).

[2] = tested on: KM12C (RONΔ160); experiment: Cell death-inducing ability, trypan blue exclusion, KM12C; assay type: cell-based, human; settings: 48 hours
Description: The cell death-inducing ability of Example 18 and Comparative Example 1 was measured in KM12C with RON mutant (Δ160), a cetuximab-resistant cell line, and Colo320HSR cell line, a cell line not expressing RON. The two colon cancer cell lines were seeded, respectively, onto 60-mm plates at 2×10^5 cells. Then, after 24 hours, while performing medium exchange, the cells were subjected to treatment with the sample compounds at respective concentrations (1 μM, 5 μM) for 48 hours. After 48 hours, the cells and cell suspensions were collected (1,500 rpm, 3 minutes), and live cells and dead cells were quantitated (n=2) through trypan blue (15250-061, Gibco) exclusion assay.

[3] = tested on: KM12C cell line carrying RON mutant (Δ160); experiment: Action mechanism in KM12C, Western blotting of related proteins; assay type: cell-based, human; settings: 1 μM, 5 μM, 48 hours
Description: KM12C cell line was seeded at 5×10^5 cells onto a 100-mm plate. Then, after 24 hours, the cells were subjected to treatment with Example 18 at respective concentrations (1 μM, 5 μM) for 48 hours. After 48 hours, the cells and cell suspensions were collected (1,500 rpm, 3 minutes), and changes in expression of related proteins were checked with Western blotting. RIPA Lysis Buffer (T&I) was added to the respective cells so as to achieve lysis. Then, BCA kit (Pierce) was used to quantify proteins. Then, the proteins were loaded onto 8% SDS-polyacrylamide, and electrophoresis was performed at 125 V.
Then, blocking was performed with 5% non-fat skim milk-TBST solution for 1 hour. Subsequently, the proteins were reacted with primary antibodies, which were diluted 1:1,000 in 5% non-fat skim milk-TBST solution, at 4° C. for 24 hours or 48 hours. Then, washing with TBST was performed three times. The resultant was reacted with anti-rabbit and anti-mouse IgG conjugated HRP secondary antibodies, which were diluted at 1:1,000, at room temperature for 2 hours. Then, washing with TBST was performed three times. Subsequently, the membrane was treated with the ECL solution (GE Healthcare), and developed by exposure to an X-ray film. Then, the bands were checked.

[4] = tested on: KM12C cell line tumor; experiment: Efficacy in animal model transplanted with KM12C, 30 and 50 mpk (Experimental Example 11); assay type: in vivo, BALB/c nude mice; settings: once a day for 2 weeks
Description: 5-Week-old female BALB/c nude mice were purchased and acclimatized for 1 week. Then, human-derived colon cancer cell line KM12C (1.5×10^6 cells/mice) was diluted in PBS, and injected subcutaneously (100 μl) into the right dorsal side of the mice. Comparative Examples 1 and Example 18 were orally administered when the tumor reached a size of about 100 mm^3. The drug was administered at 30 mpk and 50 mpk once a day for 2 weeks, and tumor size and body weight were measured twice a week. […] After completion of the drug administration, the experimental animals were euthanized, and then the tumors were extracted and weighed to perform comparative analysis.

Q: `CCOc1ccn(-c2ccc(F)cc2)c(=O)c1C(=O)Nc1ccc(Oc2ccnc3cc(-c4ccc(CN5CCOCC5)cn4)sc23)c(F)c1.Cl` [Example 18, 4-ethoxy-N-[3-fluoro-4-({2-[5-(morpholinomethyl)pyridin-2-yl]thieno[3,2-b]pyridine-7-yl}oxy)phenyl]-1-(4-fluorophenyl)-2-oxo-1,2-dihydropyridine-3-carboxamide hydrochloride] was tested. Which “inhibition of RON activity (degree of active RON)” value [1] did it give?
A: Its value is “high inhibition efficacy as compared with Comparative Example 1”.

Q: What about the “Cell death, KM12C (RONΔ160)” value ([2]; 1 μM) of the same compound?
A: Its value is 29.0.

Q: What about the “Cell death, KM12C (RONΔ160)” value ([2]; 5 μM) of the same compound?
A: Its value is 35.2.

Q: And the “active RON (Western blotting)” value [3]?
A: The value was “decreases”.

Q: And the “p-ERK, p-Src, p-Akt, and p-Gab1 (Western blotting)” value [3]?
A: Its value is “decrease”.

Q: What about the “TGI (%)” value ([4]; 30 mg/kg oral) of the same compound?
A: The value was 82.4%.

Q: What about the “TGI (%)” value ([4]; 50 mg/kg oral) of the same compound?
A: The value was 84.8%.

Q: What about the “change in mouse body weight” value ([4]; 30 mpk and 50 mpk oral) of the same compound?
A: The value was “little change in mouse body weight”.

Q: What about the “tumor growth inhibition efficacy” value ([4]; 30 mpk and 50 mpk oral) of the same compound?
A: The value was “very high tumor growth inhibition efficacy”.
